We go through two compounds from patent publication US20050003383A1, “Linoleate isomerase” (Arkion Life Sciences LLC d/b/a Bio-Technical Resources …, priority 1999, published 2005).

The structures appear in SMILES notation. Where two headings read alike, the source gives them in different places.

Series [1] concerns linoleate isomerase from Clostridium sporogenes. Put plainly: C. sporogenes linoleate isomerase kinetic assay, absorbence at 234 nm, partially purified enzyme. The class given is biochemical. On the procedure: In this experiment, all kinetic experiments were performed in a quartz cuvette (1-cm light-path with a magnetic stirrer) at room temperature using a HP 8452A diode array spectrophotometer. The cuvette was filled with 1 ml of incubation buffer containing 50 μg protein, 0.1 M potassium phosphate, pH7.5, 10 mM NaCl and 10% 1,2-propane diol. The isomerization was initiated by adding a small aliquot (1-2 μl) of freshly diluted substrate-stock (˜[…] linoleic acid) in 1,2-propane diol at 50 seconds. The increase in absorbence at 234 nm was monitored and recorded. […] The amount of product formed was calculated based on a molar extinction coefficient of 24,000.

For series [2], the system named is L. reuteri PYR8 linoleate isomerase. Put plainly: L. reuteri PYR8 linoleate isomerase kinetic assay. Type of series: biochemical, Lactobacillus reuteri. Here is the method: Linoleic isomerase activity was assayed either via CLA quantification by gas chromatography as described in Example 2 or by spectrophotometry. The enzyme assay was carried out in 0.1 M Tris buffer pH 7.5, 10 mM NaCl, 1 mM dithiothreitol, with linoleic acid at 20 parts per million (ppm), unless otherwise noted.
About 50 to about 250 μL of enzyme sample was added to 1.5 mL of enzyme assay buffer for reaction. About 1 to about 2 mL of aqueous phase was separated from the enzyme reaction and was extracted with about 3 mL of hexane. In some experiments, and with chromatography fractions containing detergent, 0.5 mL of methanol and 0.5 mL of 5 M NaCl solution were first added to enhance phase separation. The organic layer was separated and the absorbence at 234 nm was measured using a HP 8452A diode array spectrophotometer. Depending on the level of activity, assay mixtures of chromatography fractions were incubated at room temperature from about 1 to about 24 hours before extraction with hexane.
Kinetic assays were performed directly in a 0.5 mL quartz cuvette at room temperature and were continuously monitored at 234 nm. Reactions were initiated by addition of linoleic acid from a concentrated stock prepared in 1,2-propane diol. Reaction buffer was the same as above except it contained 10% 1,2-propane diol.

The target of series [3] is P. acnes ATCC 6919 linoleate isomerase (Cutibacterium acnes, UniProt Q6A8X5). Type of series: biochemical, Propionibacterium acnes. The settings on record: pH of about 7.5, about 20° C.; read-out: Km for linoleic acid. Here is the method: Formation of CLA was determined by measuring the absorbence at 234 nm. […] Generally, the isomerase was assayed using an endpoint assay after 30 to 60 minutes incubation at room temperature. FIG. 18 (time course assay at different linoleic acid levels) and FIG. 19 (end point assay at different linoleic acid levels) show the effect of increasing substrate concentration on formation of […].

For series [4], the system named is L. reuteri PYR8. Put plainly: Whole cell biotransformation of linoleic acid to CLA by L. reuteri PYR8. The class given is cell-based, Lactobacillus reuteri. The settings on record: up to 3000 ppm linoleic acid; cells with good activity.
Description: Cultures were grown and harvested as described above. Washed cells were resuspended in either fresh growth medium or 0.1 M Tris pH 8.0 buffer containing linoleic acid at various concentrations.
Samples were taken at appropriate intervals and analyzed for CLA as described in Example 2. In some experiments, various detergents were added to 0.1-0.5% final concentration. […] About 5 mL solvent was added to about 20 mL aqueous cell suspension in a 125 mL baffled shake flask incubated at room temperature.
Whole cells of L. reuteri PYR8 were used in all biotransformation experiments described below.
The effect of substrate and product on the enzyme performance was also investigated, as well as the possibility of recycling the cells. The effect of CLA on the reaction was studied by adding different concentrations of either a mixture of isomers (Sigma material, approximately 41% 9,11 isomer and 48% 10,12 CLA), or just 9,11 CLA (Matreya material, approximately 77% 9,11 CLA). Concentrations from 500 to 3000 ppm were tested. Some experiments were also performed recycling the broth from a previous biotransformation reaction with L. reuteri PYR8, resulting in an initial CLA concentration around 700 ppm. In every case, 1000 ppm linoleic acid were added.
In the second experiment, cell recycle was studied with cells that have performed the biotransformation at different levels of linoleic acid. Cells were harvested, resuspended in breakage buffer at a 10-fold concentration, and linoleic acid was added at 1000, 1500, 2000, 2500 and 3000 ppm level. Given the higher linoleic acid concentration, the reaction was allowed to proceed for six hours. […] 1000 ppm linoleic acid were added and the reaction was followed for four hours.
Series [5] concerns C. sporogenes ATCC 25762 linoleate isomerase. Nature of the series: C. sporogenes isomerase activity and stability in extracts with additives. Type of series: biochemical, Clostridium sporogenes. The conditions noted are these: tested from 0 to 100 ppm; crude extracts. Here is the method: Temperature sensitivity of the isomerase in crude extracts was tested at 4° C., room temperature (˜25° C.) and 37° C. […] The optimum pH was monitored by adjusting the pH from 5.0 to 9.0 using the 0.1M Tris buffer containing 10 mM NaCl, 1 mM DTT and 40 ppm linoleic acid.
The concentration of linoleic acid was tested from 0 to 100 ppm (FIG. 26).
Two different media, BHI and MRS, were tested. […] Protease inhibitors, PMSF (0.1-1.0 mM), iodoacetamide (1 mM) and pepstatin A were tested for their effects on the stability of the isomerase.
It has been reported that solubilization in the presence of lysophosphatidylcholine (LPC) allows higher detergent concentrations to be used, thus allowing more complete membrane protein solubilization. CaCl2 can activate enzymes, such as some nucleases.

For series [6], the system named is B. fibrisolvens A-38 linoleate isomerase. The settings on record: compound as substrate; Kepler and Tove (1967); cited from earlier work.
For series [7] the following is noted: cited from earlier work.
Setting [8] is: compound as substrate, read-out: Km.
Setting [9] is: pH of about 7.5, about 20° C., read-out: Km for linoleic acid.

Sequence of P. acnes ATCC 6919 linoleate isomerase (Q6A8X5 entry or part of it): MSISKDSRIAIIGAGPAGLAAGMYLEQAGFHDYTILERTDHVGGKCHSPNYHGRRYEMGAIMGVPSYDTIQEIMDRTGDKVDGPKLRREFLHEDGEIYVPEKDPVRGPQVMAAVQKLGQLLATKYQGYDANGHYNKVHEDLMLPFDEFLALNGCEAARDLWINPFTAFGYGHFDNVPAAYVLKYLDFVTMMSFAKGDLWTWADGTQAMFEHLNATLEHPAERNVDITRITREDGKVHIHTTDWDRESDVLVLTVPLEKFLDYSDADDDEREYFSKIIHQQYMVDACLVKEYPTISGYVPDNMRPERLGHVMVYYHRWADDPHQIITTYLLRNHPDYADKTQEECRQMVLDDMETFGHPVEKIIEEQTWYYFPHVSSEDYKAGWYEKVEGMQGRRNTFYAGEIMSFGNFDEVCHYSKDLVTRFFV

Take `CCCCC/C=C\C/C=C\CCCCCCCC(=O)O` [linoleic acid, (cis, cis)-9, 12-octadecadienoic acid]: in series [1] (Lineweaver-Burke plot), the “maximal velocity (Vmax)” value came to 350 μmol CLA/min/mg protein. The Michaelis-Menten constant (Km) in series [1] (Lineweaver-Burke plot, read-out: Km) is 11.3 µM; in series [1] (setting [8]) it was 11.3 µM; in series [1] (setting [9]), no less than 11.3 µM; in series [2] (setting [8]) it was 8.1 µM; in series [2] (setting [9]), no less than 8.1 µM; in series [3], no less than 17.2 µM. Further, in series [6], the Km is 12 µM. Moreover, the Vmax in series [1] (compound as substrate) is listed as 350 nmole/min/mg protein; in series [2] (compound as substrate) it was 880 nmole/min/mg protein; in series [6], 55 nmole/min/mg protein. For the same compound, the “RELATIVE ACTIVITY %” value in series [1] (compound as substrate at 10 PPM, activity with linoleic acid set as 100%) is listed as 100%. In addition, the “substrate has an inhibitory effect at concentrations above” value in series [1] (substrate concentration dependency of isomerization) is given as “above 20 μM”. In addition, the substrate inhibition result in series [4] is recorded as “no substrate inhibition was detected”. Also, the “optimum concentration for linoleic acid” value in series [5] is 40 ppm.

Turning to `CCCCCCCCCCCCCCCC` [hexadecane], in series [7], the “log P” value was 8.6.

Usually Km stands for the substrate concentration at which the rate is half of its maximum. One may read the log P as the decadic logarithm of the partition coefficient of the neutral form, usually between octanol and water.
